ChEMBL document CHEMBL1201862, “PubChem BioAssay data set” (2004)
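Each compound was tested at five concentrations against cells in 96-well plates for 48 hours. Here, GI50 denotes the concentration required for 50% inhibition of growth.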 Activity calls are given as the source filed them. No stated cut-off is given here; in the data, active = GI50 up to about 1.1 µM and inactive = higher.

What was measured:
Assay in all cases: DTP human tumour cell line panel, 48 h
[1] = tested on: 786-0
[2] = tested on: ACHN
[3] = tested on: COLO 205
[4] = tested on: EKVX
[5] = tested on: HCC 2998
[6] = tested on: HCT-15
[7] = tested on: K562
[8] = tested on: MCF7
[9] = tested on: MOLT-4
[10] = tested on: Malme-3M
[11] = tested on: NCI-H226
[12] = tested on: NCI-H23
[13] = tested on: NCI/ADR-RES
[14] = tested on: OVCAR-5
[15] = tested on: OVCAR-8
[16] = tested on: RXF 393
[17] = tested on: SF-539
[18] = tested on: SK-MEL-28
[19] = tested on: SK-MEL-5
[20] = tested on: SW-620

COc1cc2cc(C(=O)N3CC(COS(C)(=O)=O)c4ccc(O)cc43)[nH]c2c(OC)c1OC (stereo not given)
GI50 [1]: < 0.0001 µM (active)
GI50 [2]: < 0.0001 µM (active)
GI50 [3]: 0.000432 µM (active)
GI50 [4]: 0.00082 µM (active)
GI50 [5]: < 0.0001 µM (active)
GI50 [6]: < 0.0001 µM
GI50 [7]: < 0.0001 µM (active)
GI50 [8]: < 0.0001 µM (active)
GI50 [9]: < 0.0001 µM (active)
GI50 [10]: < 0.0001 µM (active)
GI50 [11]: 0.000109 µM (active)
GI50 [12]: < 0.0001 µM (active)
GI50 [13]: < 0.0001 µM (active)
GI50 [14]: 0.000536 µM (active)
GI50 [15]: < 0.0001 µM (active)
GI50 [16]: < 0.0001 µM (active)
GI50 [17]: < 0.0001 µM (active)
GI50 [18]: < 0.0001 µM (active)
GI50 [19]: < 0.0001 µM (active)
GI50 [20]: < 0.0001 µM (active)

COC(=O)c1oc([N+](=O)[O-])c(Cl)c1Cl
GI50 [1]: 4.14 µM (inactive)
GI50 [2]: 8.91 µM (inactive)
GI50 [3]: 4.12 µM (inactive)
GI50 [4]: 19.8 µM (inactive)
GI50 [5]: 20 µM (inactive)
GI50 [6]: 7.57 µM
GI50 [7]: 2.56 µM (inactive)
GI50 [8]: 2.04 µM (inactive)
GI50 [9]: 2.19 µM (inactive)
GI50 [10]: 7.43 µM (inactive)
GI50 [11]: 21.3 µM (inactive)
GI50 [12]: 8.73 µM (inactive)
GI50 [13]: 13.4 µM (inactive)
GI50 [14]: 8.13 µM (inactive)
GI50 [15]: 10.6 µM (inactive)
GI50 [16]: 12.7 µM (inactive)
GI50 [17]: 6.01 µM (inactive)
GI50 [18]: 8.53 µM (inactive)
GI50 [19]: 9.08 µM (inactive)
GI50 [20]: 4.07 µM (inactive)

SCc1ccc(-c2ccc(CS)cc2)cc1
GI50 [1]: 23.2 µM (inactive)
GI50 [2]: 18.7 µM (inactive)
GI50 [3]: 18 µM (inactive)
GI50 [4]: 26 µM (inactive)
GI50 [5]: 15.6 µM (inactive)
GI50 [6]: 17.6 µM
GI50 [7]: 4.07 µM (inactive)
GI50 [8]: 5.32 µM (inactive)
GI50 [9]: 2.14 µM (inactive)
GI50 [10]: 16.9 µM (inactive)
GI50 [11]: 18.4 µM (inactive)
GI50 [12]: 14.4 µM (inactive)
GI50 [13]: 7.16 µM (inactive)
GI50 [14]: 12.3 µM (inactive)
GI50 [15]: 21.3 µM (inactive)
GI50 [16]: 16.8 µM (inactive)
GI50 [17]: 18 µM (inactive)
GI50 [18]: 9.55 µM (inactive)
GI50 [19]: 15.6 µM (inactive)
GI50 [20]: 22.2 µM (inactive)

CCOC(=O)CCC(NC(=O)c1ccc(OCc2nc3cc(C(F)(F)F)ccc3nc2-c2ccccc2)cc1)C(=O)OCC (stereo not given)
GI50 [1]: > 100 µM (inactive)
GI50 [2]: 94.2 µM (inactive)
GI50 [3]: 17.9 µM (inactive)
GI50 [4]: > 100 µM (inactive)
GI50 [5]: > 10 µM (inactive)
GI50 [6]: 68.2 µM
GI50 [7]: 46.6 µM (inactive)
GI50 [8]: 5.37 µM (inactive)
GI50 [9]: 40 µM (inactive)
GI50 [10]: 87.3 µM (inactive)
GI50 [11]: 13 µM (inactive)
GI50 [12]: 85.3 µM (inactive)
GI50 [13]: 54 µM (inactive)
GI50 [14]: > 100 µM (inactive)
GI50 [15]: > 100 µM (inactive)
GI50 [16]: 85.7 µM (inactive)
GI50 [17]: > 100 µM (inactive)
GI50 [18]: > 100 µM (inactive)
GI50 [19]: 31.6 µM (inactive)
GI50 [20]: > 100 µM (inactive)

CC1CN(CCO)CC(C)O1 (stereo not given)
GI50 [1]: > 100 µM (inactive)
GI50 [2]: > 100 µM (inactive)
GI50 [3]: > 100 µM (inactive)
GI50 [4]: > 100 µM (inactive)
GI50 [5]: > 100 µM (inactive)
GI50 [6]: > 100 µM
GI50 [7]: > 100 µM (inactive)
GI50 [8]: > 100 µM (inactive)
GI50 [9]: > 100 µM (inactive)
GI50 [10]: > 100 µM (inactive)
GI50 [11]: > 100 µM (inactive)
GI50 [12]: > 100 µM (inactive)
GI50 [13]: > 100 µM (inactive)
GI50 [14]: > 100 µM (inactive)
GI50 [15]: > 100 µM (inactive)
GI50 [16]: > 100 µM (inactive)
GI50 [17]: > 100 µM (inactive)
GI50 [18]: > 100 µM (inactive)
GI50 [19]: > 100 µM (inactive)
GI50 [20]: > 100 µM (inactive)

CSc1c(C(=O)Nc2ccc(Cl)cc2)c(N)nn1-c1ccccc1
GI50 [1]: 9.75 µM (inactive)
GI50 [2]: 78.7 µM (inactive)
GI50 [3]: > 100 µM (inactive)
GI50 [4]: > 100 µM (inactive)
GI50 [5]: > 100 µM (inactive)
GI50 [6]: > 100 µM
GI50 [7]: > 100 µM (inactive)
GI50 [8]: > 100 µM (inactive)
GI50 [9]: > 100 µM (inactive)
GI50 [10]: > 100 µM (inactive)
GI50 [11]: > 100 µM (inactive)
GI50 [12]: > 100 µM (inactive)
GI50 [13]: > 58.7 µM (inactive)
GI50 [14]: > 100 µM (inactive)
GI50 [15]: 21.1 µM (inactive)
GI50 [16]: 22.7 µM (inactive)
GI50 [17]: > 100 µM (inactive)
GI50 [18]: > 100 µM (inactive)
GI50 [19]: > 100 µM (inactive)
GI50 [20]: > 100 µM (inactive)

OCCOCn1cc(Cn2ncc3c(SCc4ccccc4)ncnc32)nn1
GI50 [1]: 48.4 µM (inactive)
GI50 [2]: 99.3 µM (inactive)
GI50 [3]: 31.3 µM (inactive)
GI50 [4]: 38 µM (inactive)
GI50 [5]: 51.1 µM (inactive)
GI50 [6]: 37.4 µM
GI50 [7]: 20.4 µM (inactive)
GI50 [8]: 43.6 µM (inactive)
GI50 [9]: 14.4 µM (inactive)
GI50 [10]: 76.2 µM (inactive)
GI50 [11]: 62.8 µM (inactive)
GI50 [12]: 38.3 µM (inactive)
GI50 [13]: 31.8 µM (inactive)
GI50 [14]: 79.3 µM (inactive)
GI50 [15]: 91.8 µM (inactive)
GI50 [16]: 31.6 µM (inactive)
GI50 [17]: 39 µM (inactive)
GI50 [18]: > 100 µM (inactive)
GI50 [19]: 30 µM (inactive)
GI50 [20]: 26.7 µM (inactive)

O=C(NCCCCCCNC(=O)n1cc(F)c(=O)[nH]c1=O)NCCCOCCOCCOCCOCCOCCOCCOCCOCCOCCOCCOCCOCCOCCOCCOCCOCCOCCOCCOCCOCCOCCCNC(=O)C(O)C(O)C(OC1OC(CO)C(O)C(O)C1O)C(O)CO (stereo not given)
GI50 [1]: 17.8 µM (inactive)
GI50 [2]: 10.3 µM (inactive)
GI50 [3]: 15.3 µM (inactive)
GI50 [4]: > 88.9 µM (inactive)
GI50 [5]: 1.71 µM (inactive)
GI50 [6]: 17.5 µM
GI50 [7]: 52.4 µM (inactive)
GI50 [8]: 6.07 µM (inactive)
GI50 [9]: 37 µM (inactive)
GI50 [10]: 35.8 µM (inactive)
GI50 [11]: > 77.3 µM (inactive)
GI50 [12]: 22.5 µM (inactive)
GI50 [13]: 47.2 µM (inactive)
GI50 [14]: > 54 µM (inactive)
GI50 [15]: 43.4 µM (inactive)
GI50 [16]: 80.9 µM (inactive)
GI50 [17]: 1.67 µM (inactive)
GI50 [18]: 29.1 µM (inactive)
GI50 [19]: 20.5 µM (inactive)
GI50 [20]: 64.7 µM (inactive)

Cc1ccc(-c2c(C#N)c(S)n(NS(=O)(=O)c3ccccc3)c(=O)c2C#N)cc1
GI50 [1]: 29.6 µM (inactive)
GI50 [2]: 28.1 µM (inactive)
GI50 [3]: 38.5 µM (inactive)
GI50 [4]: 31 µM (inactive)
GI50 [5]: 47 µM (inactive)
GI50 [6]: 21.7 µM
GI50 [7]: 33.6 µM (inactive)
GI50 [8]: 28.6 µM (inactive)
GI50 [9]: 15.9 µM (inactive)
GI50 [10]: 35.7 µM (inactive)
GI50 [11]: 17.9 µM (inactive)
GI50 [12]: 37.8 µM (inactive)
GI50 [13]: 13.2 µM (inactive)
GI50 [14]: 65.9 µM (inactive)
GI50 [15]: 21.2 µM (inactive)
GI50 [16]: 41.1 µM (inactive)
GI50 [17]: 20.6 µM (inactive)
GI50 [18]: > 100 µM (inactive)
GI50 [19]: 25 µM (inactive)
GI50 [20]: 29 µM (inactive)

CC(C)(Cl)C(Br)CCC(Br)(CCl)C(Cl)CBr (stereo not given)
GI50 [1]: > 10 µM (inactive)
GI50 [2]: > 10 µM (inactive)
GI50 [3]: > 10 µM (inactive)
GI50 [4]: > 10 µM (inactive)
GI50 [5]: > 10 µM (inactive)
GI50 [6]: > 10 µM
GI50 [7]: > 10 µM (inactive)
GI50 [8]: > 10 µM (inactive)
GI50 [9]: > 10 µM (inactive)
GI50 [10]: > 10 µM (inactive)
GI50 [11]: > 10 µM (inactive)
GI50 [12]: > 10 µM (inactive)
GI50 [13]: > 10 µM (inactive)
GI50 [14]: > 10 µM (inactive)
GI50 [15]: > 10 µM (inactive)
GI50 [16]: > 10 µM (inactive)
GI50 [17]: > 10 µM (inactive)
GI50 [18]: > 10 µM (inactive)
GI50 [19]: > 10 µM (inactive)
GI50 [20]: > 10 µM (inactive)
